# Measurements taken from patent US20210395256A1, “TYROSINE KINASE INHIBITORS, COMPOSITIONS AND METHODS THERE OF” (Betta Pharmaceuticals Co., Ltd., priority 2018, published 2021).
# pIC50: −log10 of the molar value.
# Target: TrkA kinase (Homo sapiens, UniProt P04629)
# Experiment: TrkA kinase assay (mobility shift assay)
# Assay type: biochemical
# Conditions: class symbols; read-out: Trk A Kinase IC50
# In short: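 Ten-point compound series was preincubated 10 min at room temperature with TrkA, then FAM-peptide plus ATP added in HEPES pH 7.5/Brij-35 buffer and reacted at 28 °C before EDTA quench.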
# Sequence of TrkA kinase (P04629 33-796): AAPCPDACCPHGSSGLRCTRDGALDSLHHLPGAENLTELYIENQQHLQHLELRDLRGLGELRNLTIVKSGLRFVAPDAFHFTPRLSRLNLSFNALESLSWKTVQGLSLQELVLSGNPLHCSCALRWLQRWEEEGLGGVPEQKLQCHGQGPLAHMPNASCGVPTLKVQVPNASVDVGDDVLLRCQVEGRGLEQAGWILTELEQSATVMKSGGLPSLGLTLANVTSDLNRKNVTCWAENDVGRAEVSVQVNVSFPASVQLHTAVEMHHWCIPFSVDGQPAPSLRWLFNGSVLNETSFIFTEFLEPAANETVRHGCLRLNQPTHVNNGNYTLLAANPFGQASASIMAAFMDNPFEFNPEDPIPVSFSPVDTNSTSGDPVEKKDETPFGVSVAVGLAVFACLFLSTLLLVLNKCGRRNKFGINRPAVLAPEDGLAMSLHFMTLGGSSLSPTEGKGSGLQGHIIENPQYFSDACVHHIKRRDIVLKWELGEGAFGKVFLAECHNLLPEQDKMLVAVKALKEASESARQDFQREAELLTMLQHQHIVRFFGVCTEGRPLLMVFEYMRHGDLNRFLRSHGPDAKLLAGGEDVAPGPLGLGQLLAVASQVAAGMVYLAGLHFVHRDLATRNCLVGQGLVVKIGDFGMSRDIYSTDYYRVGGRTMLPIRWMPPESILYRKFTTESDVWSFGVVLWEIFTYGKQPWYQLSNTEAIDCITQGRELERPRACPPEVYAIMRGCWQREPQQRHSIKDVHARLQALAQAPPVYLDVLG
row,Structure (SMILES),pIC50
1,"CC(O)c1cc2nc(-c3cnn4ccc(N5CCC[C@@H]5c5cc(F)ccc5F)nc34)oc2cc1F (stereo partly drawn) [Compound 93, 1-(2-(5-((R)-2-(2,5-difluorophenyl)pyrrolidin-1-yl)pyrazolo[1,5-a]pyrimidin-3-yl)-6-fluorobenzo[d]oxazol-5-yl)ethan-1-ol]",≥ 8.00
2,"C#CC(O)c1nnc(-c2cnn3ccc(N4CCC[C@@H]4c4cc(F)ccc4F)nc23)[nH]1 (stereo partly drawn) [Compound 48, 1-(5-(5-((R)-2-(2,5-difluorophenyl)pyrrolidin-1-yl)pyrazolo[1,5-a]pyrimidin-3-yl)-4H-1,2,4-triazol-3-yl)prop-2-yn-1-ol]",≥ 8.00
3,"Fc1ccc(F)c([C@H]2CCCN2c2ccn3ncc(-c4nnc(-c5ccc6c(c5)OCC6)[nH]4)c3n2)c1 [Compound 61, (R)-5-(2-(2,5-difluorophenyl)pyrrolidin-1-yl)-3-(5-(2,3-dihydrobenzofuran-6-yl)-4H-1,2,4-triazol-3-yl)pyrazolo[1,5-a]pyrimidine]",≥ 8.00
4,"COc1cc2nc(-c3cnn4ccc(N5CCC[C@@H]5c5cc(F)ccc5F)nc34)oc2cc1OC [Compound 120, (R)-2-(5-(2-(2,5-difluorophenyl)pyrrolidin-1-yl)pyrazolo[1,5-a]pyrimidin-3-yl)-5,6-dimethoxybenzo[d]oxazole]",≥ 8.00
5,"Fc1ccc(F)c([C@H]2CCCN2c2ccn3ncc(-c4nc5cnccc5s4)c3n2)c1 [Compound 75, (R)-2-(5-(2-(2,5-difluorophenyl)pyrrolidin-1-yl)pyrazolo[1,5-a]pyrimidin-3-yl)thiazolo[4,5-c]pyridine]",≥ 8.00
6,"O=C1NCCOc2cc3[nH]c(-c4cnn5ccc(N6CCC[C@@H]6c6cc(F)ccc6F)nc45)nc3cc21 [Compound 147, (R)-2-(5-(2-(2,5-difluorophenyl)pyrrolidin-1-yl)pyrazolo[1,5-a]pyrimidin-3-yl)-7,8-dihydro-3H-imidazo[4′,5′:4,5]benzo[1,2-f][1,4]oxazepin-9(6H)-one]",≥ 8.00
7,"COc1cc2oc(-c3cnn4ccc(N5CCC[C@@H]5c5cc(F)ccc5F)nc34)nc2cc1CN1CCC[C@H]1C(=O)O [Compound 180, ((2-(5-((R)-2-(2,5-difluorophenyl)pyrrolidin-1-yl)pyrazolo[1,5-a]pyrimidin-3-yl)-6-methoxybenzo[d]oxazol-5-yl)methyl)-L-proline]",< 7.30

# The remaining lines, values ahead:
row,pIC50,Structure (SMILES)
1,≥ 8.00,"Cc1ccc2nc(-c3cnn4ccc(N5CCC[C@@H]5c5cc(F)ccc5F)nc34)[nH]c2n1 [Compound 106, (R)-2-(5-(2-(2,5-difluorophenyl)pyrrolidin-1-yl)pyrazolo[1,5-a]pyrimidin-3-yl)-5-methyl-3H-imidazo[4,5-b]pyridine]"
2,≥ 8.00,"OCc1ccc2nc(-c3cnn4ccc(N5CCC[C@@H]5c5cc(F)ccc5F)nc34)oc2c1 [Compound 69, (R)-(2-(5-(2-(2,5-difluorophenyl)pyrrolidin-1-yl)pyrazolo[1,5-a]pyrimidin-3-yl)benzo[d]oxazol-6-yl)methanol]"
3,≥ 8.00,"COC(=O)c1cc2[nH]c(-c3cnn4ccc(N5CCC[C@@H]5c5cc(F)ccc5F)nc34)nc2cc1C#N [Compound 152, methyl (R)-5-cyano-2-(5-(2-(2,5-difluorophenyl)pyrrolidin-1-yl)pyrazolo[1,5-a]pyrimidin-3-yl)-1H-benzo[d]imidazole-6-carboxylate]"
4,≥ 8.00,"COc1ccc2nc(-c3cnn4ccc(N5CCC[C@@H]5c5cc(F)ccc5F)nc34)[nH]c2c1F [Compound 127, (R)-5-(2-(2,5-difluorophenyl)pyrrolidin-1-yl)-3-(7-fluoro-6-methoxy-1H-benzo[d]imidazol-2-yl)pyrazolo[1,5-a]pyrimidine]"
5,7.30 to 8.00,"N#Cc1ccc2[nH]c(-c3cnn4ccc(N5CCC[C@@H]5c5cc(F)ccc5F)nc34)cc2c1 [Compound 133, (R)-2-(5-(2-(2,5-difluorophenyl)pyrrolidin-1-yl)pyrazolo[1,5-a]pyrimidin-3-yl)-1H-indole-5-carbonitrile]"
6,7.30 to 8.00,"Fc1ccc(F)c([C@H]2CCCN2c2ccn3ncc(-c4nc5ccc(SC(F)(F)F)cc5[nH]4)c3n2)c1 [Compound 116, (R)-5-(2-(2,5-difluorophenyl)pyrrolidin-1-yl)-3-(6-((trifluoromethyl)thio)-1H-benzo[d]imidazol-2-yl)pyrazolo[1,5-a]pyrimidine]"

# Same assay, conditions: numeric values; read-out: Trk A Kinase IC50
row,Structure (SMILES),pIC50
1,"CC(C)(CO)c1nnc(-c2cnn3ccc(N4CCC[C@@H]4c4cc(F)ccc4F)nc23)[nH]1 [Compound 33, (R)-2-(5-(5-(2-(2,5-difluorophenyl)pyrrolidin-1-yl)pyrazolo[1,5-a]pyrimidin-3-yl)-4H-1,2,4-triazol-3-yl)-2-methylpropan-1-ol]",8.62
2,"CCC(O)C(F)(F)c1nnc(-c2cnn3ccc(N4CCC[C@@H]4c4cc(F)ccc4F)nc23)[nH]1 (stereo partly drawn) [Compound 46, 1-(5-(5-((R)-2-(2,5-difluorophenyl)pyrrolidin-1-yl)pyrazolo[1,5-a]pyrimidin-3-yl)-4H-1,2,4-triazol-3-yl)-1,1-difluorobutan-2-ol]",8.69
3,"O=C(O)c1cc2[nH]c(-c3cnn4ccc(N5CCC[C@@H]5c5cc(F)ccc5F)nc34)nc2c(F)c1F [Compound 138, (R)-2-(5-(2-(2,5-difluorophenyl)pyrrolidin-1-yl)pyrazolo[1,5-a]pyrimidin-3-yl)-4,5-difluoro-1H-benzo[d]imidazole-6-carboxylic acid]",9.32

# Continued, values first:
row,pIC50,Structure (SMILES)
1,9.12,"Cc1cc2[nH]c(-c3cnn4ccc(N5CCC[C@@H]5c5cc(F)ccc5F)nc34)nc2cn1 [Compound 86, (R)-2-(5-(2-(2,5-difluorophenyl)pyrrolidin-1-yl)pyrazolo[1,5-a]pyrimidin-3-yl)-6-methy1-1H-imidazo[4,5-c]pyridine]"
2,9.15,"COc1ccc2nc(-c3cnn4ccc(N5CCC[C@@H]5c5cc(F)ccc5F)nc34)[nH]c2c1 [Compound 77, (R)-5-(2-(2,5-difluorophenyl)pyrrolidin-1-yl)-3-(6-methoxy-1H-benzo[d]imidazol-2-yl)pyrazolo[1,5-a]pyrimidine]"
3,8.72,"Fc1ccc(F)c([C@H]2CCCN2c2ccn3ncc(-c4nc5cccc(Cl)c5[nH]4)c3n2)c1 [Compound 97, (R)-3-(7-chloro-1H-benzo[d]imidazol-2-yl)-5-(2-(2,5-difluorophenyl)pyrrolidin-1-yl)pyrazolo[1,5-a]pyrimidine]"
4,8.72,"Fc1ccc(F)c([C@H]2CCCN2c2ccn3ncc(-c4nc5cc(F)c(F)cc5[nH]4)c3n2)c1 [Compound 136, (R)-3-(5,6-difluoro-1H-benzo[d]imidazol-2-yl)-5-(2-(2,5-difluorophenyl)pyrrolidin-1-yl)pyrazolo[1,5-a]pyrimidine]"
5,9.74,"COc1ccc2nc(-c3cnn4ccc(N5CCC[C@@H]5c5cc(F)ccc5F)nc34)[nH]c2n1 [Compound 84, (R)-2-(5-(2-(2,5-difluorophenyl)pyrrolidin-1-yl)pyrazolo[1,5-a]pyrimidin-3-yl)-5-methoxy-3H-imidazo[4,5-b]pyridine]"
6,8.06,"Fc1ccc(F)c([C@H]2CCCN2c2ccn3ncc(-c4nc5cc(F)cc(Cl)c5[nH]4)c3n2)c1 [Compound 98, (R)-3-(7-chloro-5-fluoro-1H-benzo[d]imidazol-2-yl)-5-(2-(2,5-difluorophenyl)pyrrolidin-1-yl)pyrazolo[1,5-a]pyrimidine]"
7,8.92,"Cc1nccc2nc(-c3cnn4ccc(N5CCC[C@@H]5c5cc(F)ccc5F)nc34)[nH]c12 [Compound 103, (R)-2-(5-(2-(2,5-difluorophenyl)pyrrolidin-1-yl)pyrazolo[1,5-a]pyrimidin-3-yl)-4-methyl-3H-imidazo[4,5-c]pyridine]"
